Entries after “also recorded” stand apart in the source; their conditions may differ.
Legend:
Format in all cases: physicochemical
[1] = DVS (Dynamic Vapor Sorption) moisture sorption/desorption, hygroscopicity classification; details: 25 °C; for Change In Mass (%) - ref, Desorption / Change In Mass (%) - ref, Sorption / Change In Mass (%) - ref, Hysteresis: Cycle 1
Description: DVS (Dynamic Vapor Sorption): Around 10-20 mg of samples were used to test its moisture sorption/desorption profiles at 25° C. under 0%˜95%˜0% relative humidity (RH) cycle using dm/dt: 0.01%/min equilibrium and a measurement step of 5% RH.
Hygroscopicity Classification: Typical %-moisture gain as a function of increased RH was determined by DVS. Samples went through a dynamic test isothermally at 25° C. The test was divided into 2 processes, one was absorption process, the other was desorption process. RH ranged from 0% to 95% with 5% RH for each step, and when dm/dt<=0.01%, it was assumed the water sorption/desorption equilibrium is reached.

[2] = Solubility in SGF, FaSSIF, FeSSIF, 0.1M HCl, pH 4.5 and pH 6.8 aqueous at 25° C. (HPLC); details: for Solubility conc.(mg/ml): solubility of salts transformed to freebase; for Final pH: solubility test
Description: Solubility: Excess drug substance was equilibrated with SGF (Simulated Gastric Fluid), FaSSIF (Simulated Small Intestinal Fluid under Fasted state), FeSSIF (Simulated Small Intestinal Fluid under Fed state), 0.1M HCl, pH 4.5 aqueous, and pH 6.8 aqueous at 25° C. After stirring for 20˜24 h, each sample was filtered, diluted appropriately and analyzed by HPLC. The experiment was terminated once a solubility target of 5 mg/mL was reached.

[3] = Solid stability at 40° C./0% RH (closed) and 40° C./75% RH (open), HPLC; details: for 0 day % remaining / 7 day % remaining / 21 day % remaining: solid
Outline: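 Solid compound (5 mg) stored in the dark at 40 °C/0% RH in closed vials and at 40 °C/75% RH open. Samples analysed by HPLC at day 0, 5 and 10, or at days 0, 7 and 21, depending on the study.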

[4] = Solution stability in 0.1 N HCl, pH 4.5 buffer and pH 6.8 buffer at 25° C. and 37° C., HPLC
Description: Solution stability: A stock solution of compound (1.0 mg/mL) in MeOH was diluted with 0.1 N HCl, pH 4.5 buffer (acetate) and pH 6.8 buffer to reach constant ionic strength of 0.15 M and the same final concentration (50 μg/mL, 40% MeOH).
A stock solution of 1b and 3b (1.0 mg/mL) in MeOH was diluted with pH 6.8 buffer to reach constant ionic strength of 0.15M and the same final concentration (25 μg/mL, 40% […]).
The solutions were stored at 25° C. and 37° C.

[5] = TGA (Thermal Gravimetric Analysis) weight loss; details: room temperature to 120° C.
Description: TGA (Thermal Gravimetric Analysis): Samples of compounds (4˜6 mg) were weighed into the pan, and heated under nitrogen purge using a ramp rate of 20° C./min over the range of 30° C.˜350° C.

**Q.** Which results are given for “3,10-dimethoxy-5,8,13,13a-tetrahydro-6H-isoquinolino[3,2-a]isoquinolin-9-yl 3-fluorobenzenesulfonate [Compound 1b]”?
**A.** Hygroscopicity classification by DVS [1]: non-hygroscopic; also recorded: not hygroscopic; Change In Mass (%) - ref, Desorption ([1]; Target RH 0.0 %): 0.0000%; Change In Mass (%) - ref, Sorption ([1]; Target RH 0.0 %): 0.0000%; Change In Mass (%) - ref, Desorption ([1]; Target RH 5.0 %): 0.0094%; Change In Mass (%) - ref, Hysteresis ([1]; Target RH 5.0 %): 0.0031%; Change In Mass (%) - ref, Sorption ([1]; Target RH 5.0 %): 0.0063%; Change In Mass (%) - ref, Desorption ([1]; Target RH 10.0 %): 0.0157%; Change In Mass (%) - ref, Hysteresis ([1]; Target RH 10.0 %): 0.0052%; Change In Mass (%) - ref, Sorption ([1]; Target RH 10.0 %): 0.0104%; Change In Mass (%) - ref, Desorption ([1]; Target RH 15.0 %): 0.0198%; Change In Mass (%) - ref, Hysteresis ([1]; Target RH 15.0 %): 0.0063%; Change In Mass (%) - ref, Sorption ([1]; Target RH 15.0 %): 0.0136%; Change In Mass (%) - ref, Desorption ([1]; Target RH 20.0 %): 0.0251%; Change In Mass (%) - ref, Hysteresis ([1]; Target RH 20.0 %): 0.0073%; Change In Mass (%) - ref, Sorption ([1]; Target RH 20.0 %): 0.0178%; Change In Mass (%) - ref, Desorption ([1]; Target RH 25.0 %): 0.0292%; Change In Mass (%) - ref, Hysteresis ([1]; Target RH 25.0 %): 0.0084%; Change In Mass (%) - ref, Sorption ([1]; Target RH 25.0 %): 0.0209%; Change In Mass (%) - ref, Desorption ([1]; Target RH 30.0 %): 0.0334%; Change In Mass (%) - ref, Hysteresis ([1]; Target RH 30.0 %): 0.0104%; Change In Mass (%) - ref, Sorption ([1]; Target RH 30.0 %): 0.0230%; Change In Mass (%) - ref, Desorption ([1]; Target RH 35.0 %): 0.0386%; Change In Mass (%) - ref, Hysteresis ([1]; Target RH 35.0 %): 0.0125%; Change In Mass (%) - ref, Sorption ([1]; Target RH 35.0 %): 0.0261%; Change In Mass (%) - ref, Desorption ([1]; Target RH 40.0 %): 0.0449%; Change In Mass (%) - ref, Hysteresis ([1]; Target RH 40.0 %): 0.0094%; Change In Mass (%) - ref, Sorption ([1]; Target RH 40.0 %): 0.0355%; Change In Mass (%) - ref, Desorption ([1]; Target RH 45.0 %): 0.0501%; Change In Mass (%) - ref, Hysteresis ([1]; Target RH 45.0 %): 0.0104%; Change In Mass (%) - ref, Sorption ([1]; Target RH 45.0 %): 0.0397%; Change In Mass (%) - ref, Desorption ([1]; Target RH 50.0 %): 0.0543%; Change In Mass (%) - ref, Hysteresis ([1]; Target RH 50.0 %): 0.0115%; Change In Mass (%) - ref, Sorption ([1]; Target RH 50.0 %): 0.0428%; Change In Mass (%) - ref, Desorption ([1]; Target RH 55.0 %): 0.0606%; Change In Mass (%) - ref, Hysteresis ([1]; Target RH 55.0 %): 0.0146%; Change In Mass (%) - ref, Sorption ([1]; Target RH 55.0 %): 0.0460%; Change In Mass (%) - ref, Desorption ([1]; Target RH 60.0 %): 0.0658%; Change In Mass (%) - ref, Hysteresis ([1]; Target RH 60.0 %): 0.0178%; Change In Mass (%) - ref, Sorption ([1]; Target RH 60.0 %): 0.0480%; Change In Mass (%) - ref, Desorption ([1]; Target RH 65.0 %): 0.0689%; Change In Mass (%) - ref, Hysteresis ([1]; Target RH 65.0 %): 0.0178%; Change In Mass (%) - ref, Sorption ([1]; Target RH 65.0 %): 0.0512%; Change In Mass (%) - ref, Desorption ([1]; Target RH 70.0 %): 0.0731%; Change In Mass (%) - ref, Hysteresis ([1]; Target RH 70.0 %): 0.0157%; Change In Mass (%) - ref, Sorption ([1]; Target RH 70.0 %): 0.0574%; Change In Mass (%) - ref, Desorption ([1]; Target RH 75.0 %): 0.0794%; Change In Mass (%) - ref, Hysteresis ([1]; Target RH 75.0 %): 0.0146%; Change In Mass (%) - ref, Sorption ([1]; Target RH 75.0 %): 0.0648%; Change In Mass (%) - ref, Desorption ([1]; Target RH 80.0 %): 0.0857%; Change In Mass (%) - ref, Hysteresis ([1]; Target RH 80.0 %): 0.0136%; Change In Mass (%) - ref, Sorption ([1]; Target RH 80.0 %): 0.0721%; Change In Mass (%) - ref, Desorption ([1]; Target RH 85.0 %): 0.0940%; Change In Mass (%) - ref, Hysteresis ([1]; Target RH 85.0 %): 0.0136%; Change In Mass (%) - ref, Sorption ([1]; Target RH 85.0 %): 0.0804%; Change In Mass (%) - ref, Desorption ([1]; Target RH 90.0 %): 0.1065%; Change In Mass (%) - ref, Hysteresis ([1]; Target RH 90.0 %): 0.0115%; Change In Mass (%) - ref, Sorption ([1]; Target RH 90.0 %): 0.0951%; Change In Mass (%) - ref, Desorption ([1]; Target RH 95.0 %): 0.1159%; Change In Mass (%) - ref, Sorption ([1]; Target RH 95.0 %): 0.1159%; moisture picked up (DVS) ([1]; at 95% RH): ~0.2%; Solubility conc.(mg/ml) ([2]; 0.1N HCL): 0.605 mg/mL; Solubility conc.(mg/ml) ([2]; FaSSIF): 0.007 mg/mL; Solubility conc.(mg/ml) ([2]; FeSSIF): 0.009 mg/mL; Solubility conc.(mg/ml) ([2]; SGF): 0.588 mg/mL; Solubility conc.(mg/ml) ([2]; Water): 0.008 mg/mL; Solubility conc.(mg/ml) ([2]; pH 4.5 Acetate Buffer (USP)): 0.008 mg/mL; Solubility conc.(mg/ml) ([2]; pH 6.8 Phosphate Buffer (USP)): 0.011 mg/mL; Final pH ([2]; 0.1N HCL): 1.68; Final pH ([2]; FaSSIF): 6.52; Final pH ([2]; FeSSIF): 5.14; Final pH ([2]; SGF): 1.67; Final pH ([2]; Water): 5.42; Final pH ([2]; pH 4.5 Acetate Buffer (USP)): 4.59; Final pH ([2]; pH 6.8 Phosphate Buffer (USP)): 6.91; Solid-state stability (HPLC) ([3]; 40° C./0% RH (closed) and 40° C./75% RH (open), dark, up to 3 weeks): substantially stable; 0 day % remaining ([3]; 40° C. (0% RH, closed)): 100.0%; 7 day % remaining ([3]; 40° C. (0% RH, closed)): 99.3%; 21 day % remaining ([3]; 40° C. (0% RH, closed)): 98.4%; 0 day % remaining ([3]; 40° C./75% RH (open)): 100.0%; 7 day % remaining ([3]; 40° C./75% RH (open)): 99.2%; 21 day % remaining ([3]; 40° C./75% RH (open)): 102.0%; Remaining % ([4]; 25° C., 0.1N HCL, 0 h, 50 μg/mL, 40% MeOH): 100.00%; Remaining % ([4]; 25° C., 0.1N HCL, 3 h, 50 μg/mL, 40% MeOH): 100.53%; Remaining % ([4]; 25° C., 0.1N HCL, 24 h, 50 μg/mL, 40% MeOH): 100.88%; Solution stability ([4]; 25° C., 24 h, 0.1N HCl, pH 4.5 buffer): stable; Solution stability ([4]; 25° C., 24 h, pH 6.8 buffer): clear degradations; Remaining % ([4]; 25° C., pH 4.5, 0 h, 50 μg/mL, 40% MeOH): 100.00%; Remaining % ([4]; 25° C., pH 4.5, 3 h, 50 μg/mL, 40% MeOH): 99.94%; Remaining % ([4]; 25° C., pH 4.5, 24 h, 50 μg/mL, 40% MeOH): 98.79%; Remaining % ([4]; 25° C., pH 6.8*, 0 h, final conc. 25 μg/mL with 40% DMSO): 100.00%; Remaining % ([4]; 25° C., pH 6.8*, 3 h, final conc. 25 μg/mL with 40% DMSO): 99.18%; Remaining % ([4]; 25° C., pH 6.8*, 24 h, final conc. 25 μg/mL with 40% DMSO): 91.23%; Remaining % ([4]; 37° C., 0.1N HCL, 0 h, 50 μg/mL, 40% MeOH): 100.00%; Remaining % ([4]; 37° C., 0.1N HCL, 3 h, 50 μg/mL, 40% MeOH): 101.92%; Remaining % ([4]; 37° C., 0.1N HCL, 24 h, 50 μg/mL, 40% MeOH): 100.14%; Solution stability ([4]; 37° C., 24 h, 0.1N HCl, pH 4.5 buffer): stable; Solution stability ([4]; 37° C., 24 h, pH 6.8 buffer): decomposed; Remaining % ([4]; 37° C., pH 4.5, 0 h, 50 μg/mL, 40% MeOH): 100.00%; Remaining % ([4]; 37° C., pH 4.5, 3 h, 50 μg/mL, 40% MeOH): 99.51%; Remaining % ([4]; 37° C., pH 4.5, 24 h, 50 μg/mL, 40% MeOH): 98.83%; Remaining % ([4]; 37° C., pH 6.8*, 0 h, final conc. 25 μg/mL with 40% DMSO): 100.00%; Remaining % ([4]; 37° C., pH 6.8*, 3 h, final conc. 25 μg/mL with 40% DMSO): 98.97%; Remaining % ([4]; 37° C., pH 6.8*, 24 h, final conc. 25 μg/mL with 40% DMSO): 94.70%; TGA weight loss (in words) [5]: almost no weight loss
